For six compounds, MIC results are on record in patent publication US9409905B2, “Antibacterial compounds and methods for use” (PTC THERAPEUTICS, INC., priority 2011, dated 2016).

Molecules are shown by their SMILES. Values after ≈ are worked out from the molar mass of the structure shown. Where only a bound is given, the exact number is not on record here.

Assay [1] deals with Staphylococcus aureus (S. aureus) 29213. As to the kind of experiment: Antibacterial activity, microbroth dilution MIC (Table 1). Conditions: microbroth dilution, Gram-positive S. aureus 29213, read-out: MIC, 29213. The class given is cell-based. Put shortly: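 Potency is reported as minimum inhibitory concentration in μg/mL, determined by broth microdilution as the lowest level of compound that stops growth visible to the eye.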

Assay [2] concerns Escherichia coli (E. coli) BAS849. The assay is described as above. The note with it: microbroth dilution, super sensitive Gram-negative E. coli BAS849, read-out: MIC, BAS849. The class given is cell-based. Put shortly: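 Growth inhibition by microbroth dilution. MIC = lowest μg/mL with no visible growth. Strain 25922 is the control Gram-negative; BAS849 is hypersensitive.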
Assay [3] relates to A. baumannii MXX2240. The assay is described as follows: Antibacterial activity, MIC, resistant strain (Table 4). The class given is cell-based. Conditions: Acinetobacter baumannii, MXX2240; resistant A. baumannii MMX2240, multi-drug resistant clinical isolate; read-out: MIC, MMX2240. In short, it runs like this:
(§1)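 MIC (μg/mL) by microbroth dilution, taken as the lowest drug concentration preventing macroscopically visible growth. MXX strains are multi-drug resistant clinical isolates.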

The subject of assay [4] is K. pneumoniae MXX1232. The description is as above. The format is cell-based. The note with it: Klebsiella pneumoniae, MXX1232; resistant K. pneumoniae MMX1232, multi-drug resistant clinical isolate; read-out: MIC, MMX1232. Put shortly: as §1
The test system of assay [5] is Pseudomonas aeruginosa (P. aeruginosa) 27853. The assay is described as follows: Antibacterial activity, MIC (Table 5). The format is cell-based. Conditions: P. aeruginosa 27853, read-out: MIC, 27853. Put shortly:
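Values are MICs in μg/mL, read as the lowest concentration at which no growth is visible by eye. They were determined by a microbroth dilution method.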

For assay [6], the system named is E. coli 25922. As to the kind of experiment: Antibacterial activity, microbroth dilution MIC (Table 1). The format is cell-based, Escherichia coli. Conditions: Escherichia coli; microbroth dilution; control Gram-negative E. coli 25922 strain; read-out: MIC, 25922. Put shortly: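 Values are MICs (μg/mL): the smallest drug amount at which macroscopically visible bacterial growth is absent under assay conditions, from a microdilution method in broth.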

Assay [7] concerns E. coli LZ3111. As to the kind of experiment: Antibacterial activity, MIC, quinolone resistant strain (Table 2). The class given is cell-based. The note with it: Escherichia coli, LZ3111, read-out: MIC LZ3111. Put shortly:
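MIC values (μg/mL) came from a microbroth dilution assay, scored as the lowest drug concentration at which no growth was visible by eye.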

Assay [8] deals with Klebsiella pneumoniae (K. pneumoniae) 35657. As to the kind of experiment: Antibacterial activity, MIC (Table 4). The format is cell-based. Conditions: K. pneumoniae 35657, read-out: MIC, 35657. Put shortly: as §1
Assay [9] concerns Acinetobacter baumannii (A. baumannii) BAA747. As to the kind of experiment: Antibacterial activity, MIC (Table 4). The format is cell-based. The note with it: A. baumannii BAA747, read-out: MIC, BAA747. In short, it runs like this:
as §1

Assay [10] has as its system E. coli ELZ4251. As to the kind of experiment: Antibacterial activity, MIC, multi-drug resistant clinical isolate (Table 3). The class given is cell-based. The note with it: Escherichia coli. In short, it runs like this:
(§2)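 Compounds were serially diluted in broth microdilution format and growth was scored visually; the MIC is the lowest concentration at which no macroscopically visible growth occurred, expressed in μg/mL.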

Assay [11] relates to E. coli ELZ4000. The assay is described as above. The note with it: Escherichia coli, ELZ4000, read-out: MIC ELZ4000. The format is cell-based. Put shortly: as §2

For `CCc1c(-c2ccc3ccn(C)c3c2)[nH]c(=O)c(C(=O)O)c1O` [Cpd 8, 5-ethyl-4-hydroxy-6-(1-methyl-1H-indol-6-yl)-2-oxo-1,2-dihydropyridine-3-carboxylic acid], the MIC lay within 3.5 to 12.5 µg/mL (≈ 11.2 to 40 µM) in assay [1]; 1 to 3.5 µg/mL (≈ 3.2 to 11.2 µM) in assay [2]; 12.5 to 150 µg/mL (≈ 40 to 480 µM) in assay [3]; 12.5 to 150 µg/mL (≈ 40 to 480 µM) in assay [4]; 12.5 to 150 µg/mL (≈ 40 to 480 µM) in assay [5]; 12.5 to 150 µg/mL (≈ 40 to 480 µM) in assay [6]. Also, the MIC in assay [7] was in the range of 3.5 to 12.5 µg/mL (≈ 11.2 to 40 µM); in assay [8], 12.5 to 150 µg/mL (≈ 40 to 480 µM); in assay [9], 12.5 to 150 µg/mL (≈ 40 to 480 µM); in assay [10], 12.5 to 150 µg/mL (≈ 40 to 480 µM); in [11] it was 12.5 to 150 µg/mL (≈ 40 to 480 µM).

In the case of `CCc1cc(C(=O)O)c(=O)[nH]c1-c1ccc2c(c1)cc(CN1CC[C@@H](F)C1)n2C` [Cpd 129, (R)-5-ethyl-6-(2-((3-fluoropyrrolidin-1-yl)methyl)-1-methyl-1H-indol-5-yl)-2-oxo-1,2-dihydropyridine-3-carboxylic acid], the MIC in [1] is 3.5 to 12.5 µg/mL (≈ 8.81 to 31.5 µM); in assay [2], under 1 µg/mL; in [3], 12.5 to 150 µg/mL (≈ 31.5 to 377 µM); in assay [4], 12.5 to 150 µg/mL (≈ 31.5 to 377 µM); in [5], 12.5 to 150 µg/mL (≈ 31.5 to 377 µM); in [6] it was under 1 µg/mL. Moreover, the minimal inhibitory concentration (MIC) lay in the range of 12.5 to 150 µg/mL (≈ 31.5 to 377 µM) in assay [7]; 1 to 3.5 µg/mL (≈ 2.52 to 8.81 µM) in assay [8]; 3.5 to 12.5 µg/mL (≈ 8.81 to 31.5 µM) in assay [9]; 12.5 to 150 µg/mL (≈ 31.5 to 377 µM) in assay [10]; 12.5 to 150 µg/mL (≈ 31.5 to 377 µM) in assay [11].

`CCc1cc(C(=O)O)c(=O)[nH]c1-c1ccc2c(c1)cc(CN1CCCC1C)n2C` (stereo not drawn) [Cpd 130, 5-ethyl-6-(1-methyl-2-((2-methylpyrrolidin-1-yl)methyl)-1H-indol-5-yl)-2-oxo-1,2-dihydropyridine-3-carboxylic acid]: the MIC was 12.5 to 150 µg/mL (≈ 31.8 to 381 µM) in assay [1]; under 1 µg/mL in assay [2]; 12.5 to 150 µg/mL (≈ 31.8 to 381 µM) in [3]; 12.5 to 150 µg/mL (≈ 31.8 to 381 µM) in [4]; 12.5 to 150 µg/mL (≈ 31.8 to 381 µM) in assay [5]; under 1 µg/mL in assay [6]. For the same compound, the minimal inhibitory concentration (MIC) in assay [7] was 12.5 to 150 µg/mL (≈ 31.8 to 381 µM); in assay [8], under 1 µg/mL; in assay [9] it was 1 to 3.5 µg/mL (≈ 2.54 to 8.89 µM); in [10] it was 12.5 to 150 µg/mL (≈ 31.8 to 381 µM); in assay [11] it was 12.5 to 150 µg/mL (≈ 31.8 to 381 µM).

For `CCc1cc(C(=O)O)c(=O)[nH]c1-c1ccc2c(c1)cc(CN1CCC[C@@H]1CO)n2C` [Cpd 132, (R)-5-ethyl-6-(2-((2-(hydroxymethyl)pyrrolidin-1-yl)methyl)-1-methyl-1H-indol-5-yl)-2-oxo-1,2-dihydropyridine-3-carboxylic acid], the minimal inhibitory concentration (MIC) is 12.5 to 150 µg/mL (≈ 30.5 to 366 µM) in [1]; under 1 µg/mL in assay [2]; 12.5 to 150 µg/mL (≈ 30.5 to 366 µM) in assay [3]; 12.5 to 150 µg/mL (≈ 30.5 to 366 µM) in assay [4]; 12.5 to 150 µg/mL (≈ 30.5 to 366 µM) in assay [5]; under 1 µg/mL in assay [6]. Also, the MIC in [7] is 12.5 to 150 µg/mL (≈ 30.5 to 366 µM); in assay [8], under 1 µg/mL; in assay [9], 3.5 to 12.5 µg/mL (≈ 8.55 to 30.5 µM); in assay [10], 12.5 to 150 µg/mL (≈ 30.5 to 366 µM); in assay [11], 12.5 to 150 µg/mL (≈ 30.5 to 366 µM).

Turning to `CCc1cc(C(=O)O)c(=O)[nH]c1-c1ccc2c(c1)cc(CN1CCCCC1)n2C` [Cpd 133, 5-ethyl-6-(1-methyl-2-(piperidin-1-ylmethyl)-1H-indol-5-yl)-2-oxo-1,2-dihydropyridine-3-carboxylic acid], the minimum inhibitory concentration (MIC) in assay [1] is 12.5 to 150 µg/mL (≈ 31.8 to 381 µM); in assay [2] it was under 1 µg/mL; in assay [3] it was 12.5 to 150 µg/mL (≈ 31.8 to 381 µM); in assay [4] it was 12.5 to 150 µg/mL (≈ 31.8 to 381 µM); in assay [5], 12.5 to 150 µg/mL (≈ 31.8 to 381 µM); in [6], under 1 µg/mL. Moreover, the minimal inhibitory concentration (MIC) is 12.5 to 150 µg/mL (≈ 31.8 to 381 µM) in assay [7]; under 1 µg/mL in assay [8]; 1 to 3.5 µg/mL (≈ 2.54 to 8.89 µM) in assay [9]; 12.5 to 150 µg/mL (≈ 31.8 to 381 µM) in assay [10]; 12.5 to 150 µg/mL (≈ 31.8 to 381 µM) in assay [11].

Consider `CCc1cc(C(=O)O)c(=O)[nH]c1-c1ccc2c(c1)cc1n2CCC1N(C)C` (stereo not drawn) [Cpd 152, 6-(1-(dimethylamino)-2,3-dihydro-1H-pyrrolo[1,2-a]indol-7-yl)-5-ethyl-2-oxo-1,2-dihydropyridine-3-carboxylic acid], for which the minimum inhibitory concentration (MIC) is 12.5 to 150 µg/mL (≈ 34.2 to 410 µM) in assay [1]; under 1 µg/mL in assay [2]; 12.5 to 150 µg/mL (≈ 34.2 to 410 µM) in [3]; 12.5 to 150 µg/mL (≈ 34.2 to 410 µM) in [4]; 12.5 to 150 µg/mL (≈ 34.2 to 410 µM) in assay [5]; under 1 µg/mL in assay [6]. The minimal inhibitory concentration (MIC) was 12.5 to 150 µg/mL (≈ 34.2 to 410 µM) in [7]; under 1 µg/mL in assay [8]; 3.5 to 12.5 µg/mL (≈ 9.58 to 34.2 µM) in [9]; 12.5 to 150 µg/mL (≈ 34.2 to 410 µM) in assay [10]; 12.5 to 150 µg/mL (≈ 34.2 to 410 µM) in assay [11].
